In the supplement of paper PMC10307832:

Assays:
Assay in all cases: relative viability (nuclei count vs DMSO), 5 days (fraction); higher = more cells survive
NVP-TAE684 = compound: COc1cc(N2CCC(N3CCN(C)CC3)CC2)ccc1Nc1ncc(Cl)c(Nc2ccccc2S(=O)(=O)C(C)C)n1 [NVP-TAE684]
Procedure, shortened: (§1)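 Following overnight incubation at 37 °C, lung cancer cell lines in 1536-well plates were pinned with five library-drug doses (not always all listed) in √10 steps on vehicle-anchored plates. The cells then spent 5 days without medium change before a combined fix, permeabilisation and Hoechst stain, 4× imaging and MetaXpress nuclear counts. Viability is the treated-to-vehicle ratio of nuclei, taken as the median across plates. Only plates with control CV below 25% and at least one doubling passed.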

[1] = compound: C1=CC=C2C(=C1)N=C(S2)C(C#N)C3=NC(=NC=C3)NCCC4=CN=CC=C4
Procedure, shortened: as §1

Vandetanib = compound: COc1cc2/c(=N/c3ccc(Br)cc3F)nc[nH]c2cc1OCC1CCN(C)CC1 [Vandetanib]
Procedure, shortened: as §1

CUDC-101 = compound: C#Cc1cccc(Nc2ncnc3cc(OC)c(OCCCCCCC(=O)NO)cc23)c1 [CUDC-101]
Procedure, shortened: as §1

Cell Line | relative viability (NVP-TAE684; 0.2 µM) | relative viability (NVP-TAE684; 0.6325 µM) | relative viability (NVP-TAE684; 2 µM) | relative viability ([1]; 0.005 µM) | relative viability ([1]; 0.01581 µM) | relative viability ([1]; 0.05 µM) | relative viability ([1]; 0.1581 µM) | relative viability ([1]; 0.5 µM) | relative viability (Vandetanib; 0.02 µM) | relative viability (Vandetanib; 0.06325 µM) | relative viability (Vandetanib; 0.2 µM) | relative viability (Vandetanib; 0.6325 µM) | relative viability (Vandetanib; 2 µM) | relative viability (CUDC-101; 0.01 µM) | relative viability (CUDC-101; 0.03162 µM) | relative viability (CUDC-101; 0.1 µM) | relative viability (CUDC-101; 0.3162 µM) | relative viability (CUDC-101; 1 µM)
CAL-12T | 0.904 | 0.956 | 0.466 | 1 | 0.912 | 0.962 | 1.07 | 0.798 | 1.07 | 0.909 | 0.954 | 0.885 | 0.729 | 1.16 | 1.03 | 0.993 | 1.05 | 0.951
NCI-H1755 | 1.04 | 1.04 | 0.892 | 1.03 | 1.15 | 0.985 | 1.09 | 0.99 | 1.02 | 0.952 | 0.975 | 0.973 | 0.96 | 0.998 | 0.987 | 1.02 | 1.04 | 0.98
H3255 | 0.947 | 0.859 | 0.754 | 1.04 | 0.922 | 0.964 | 1.06 | 0.981 | 0.998 | 0.934 | 0.845 | 0.573 | 0.355 | 1 | 0.912 | 0.454 | 0.658 | 0.273
NCI-H441 | 0.898 | 1.15 | 0.587 | – | 1.12 | 1 | 1.27 | 0.871 | 1.03 | 0.948 | 0.983 | 1.15 | 0.939 | 1.04 | 1.09 | 0.981 | 1.13 | 0.844
NCI-H1793 | 0.826 | 0.875 | 0.816 | 0.716 | 0.906 | 0.852 | 1.05 | 0.925 | 1.01 | 0.821 | 0.833 | 0.765 | 0.781 | 0.95 | 0.707 | 0.825 | 0.92 | 0.613
LK-2 | 1.09 | 0.924 | 0.356 | 0.753 | 1.11 | 0.97 | 1.21 | 1.07 | 0.97 | 0.969 | 0.966 | 1.06 | 0.815 | 1.09 | 0.978 | 0.948 | 0.885 | 0.546
SW 1573 | 0.948 | 1.02 | 0.645 | 0.855 | 1.11 | 0.792 | 1.13 | 0.978 | 0.941 | 0.972 | 0.92 | 0.979 | 0.983 | 1.16 | 0.976 | 1.09 | 1.07 | 0.734
HCC-78 | 0.824 | 0.658 | 0.495 | 1.08 | 0.92 | 1.07 | 1.07 | 0.996 | 1.02 | 0.841 | 0.958 | 0.974 | 0.853 | 1.01 | 0.918 | 0.954 | 0.809 | 0.416
SK-MES-1 | 1.02 | – | 0.714 | 1.05 | 1.02 | 0.949 | 1.09 | 0.882 | 1 | 0.896 | 1.03 | 0.912 | 0.827 | 0.968 | 0.984 | 0.989 | 0.971 | 0.683
NCI-H1623 | 0.945 | 0.868 | 0.852 | 0.981 | 1.01 | 0.837 | 0.96 | 0.846 | 0.891 | 0.905 | 0.949 | 0.938 | 0.825 | 1.11 | 0.858 | 0.82 | 0.813 | 0.552
NCI-H2023 | 1.02 | 0.756 | 0.265 | 0.887 | 1.02 | 0.889 | 1.16 | 0.935 | 0.909 | 0.947 | 1.02 | 0.917 | 0.936 | 1.02 | 0.884 | 0.962 | 1.15 | 0.87
ChaGo-K-1 | 0.98 | 0.878 | 0.843 | 0.984 | 0.929 | 0.99 | 1.05 | 0.939 | 1.01 | 1.01 | 1.01 | 0.998 | 0.984 | 0.923 | 0.965 | 1.02 | 1.06 | 0.787
NCI-H2126 | 0.991 | 0.959 | 0.684 | 0.912 | 0.977 | 0.946 | 1.05 | 0.864 | 0.96 | 0.91 | 0.965 | 0.906 | 0.903 | 1.04 | 0.957 | 1.03 | 0.94 | 0.81
RERF-LC-KJ | 0.971 | 0.969 | 0.79 | 0.988 | 1.04 | 0.953 | 1.07 | 0.895 | 0.962 | 0.954 | 0.963 | 0.927 | 0.815 | 1 | 1.02 | 1.01 | 0.98 | 0.801
NCI-H1563 | 0.955 | 0.95 | – | 0.778 | 0.944 | 0.899 | 0.995 | 0.946 | 0.973 | 1.07 | 0.989 | 1.03 | 0.94 | 0.968 | 0.869 | 1.06 | 0.917 | 0.893
NCI-H3122 | 0.236 | 0.164 | 0.126 | 0.958 | 0.977 | 0.98 | 1.03 | 0.991 | 0.928 | 1 | 1.02 | 0.984 | 0.978 | 0.942 | 0.995 | 1.03 | 1.01 | 0.994
NCI-H322M | 1.02 | 0.795 | 0.636 | 0.745 | 0.839 | 0.924 | 0.951 | 0.914 | 0.895 | 0.879 | 0.872 | 0.797 | 0.538 | 0.889 | 0.846 | 0.768 | 0.739 | 0.474
NCI-H647 | 0.924 | 1.01 | 0.723 | 0.814 | 0.997 | 0.927 | 1.16 | 0.893 | 0.965 | 0.946 | 0.968 | 0.933 | 0.872 | 1.08 | 0.899 | 1.04 | 0.987 | 0.801
